Results on eleven molecules are retold here after patent US20230106032A1, “IMIDAZOTRIAZINES ACTING ON CANCER VIA INHIBITION OF CDK12” (Bayer Aktiengesellschaft, priority 2020, published 2023).

The target of one assay is T1, CDK9/CycT1 (Homo sapiens, UniProt P50750).
T1 construct: Recombinant full-length His-tagged human CDK9 and CycT1, expressed in insect cells; His; purchased Life Technologies PV4131; host or cells: insect cells
Put plainly: CDK9/CycT1 high ATP kinase assay (TR-FRET, 2 mM ATP). It is filed as biochemical. The note with it: read-out: CDK9/CyclinT1, 2 mM ATP (high ATP) IC50-[mol/l] (median). How it is done:
CDK9/CycT1-inhibitory activity of compounds of the present invention at a high ATP concentration after preincubation of enzyme and test compounds was quantified employing the CDK9/CycT1 TR-FRET assay as described in the following paragraphs.
Recombinant full-length His-tagged human CDK9 and CycT1, expressed in insect cells and purified by Ni-NTA affinity chromatography, were purchased from Life Technologies (Cat. No PV4131). As substrate for the kinase reaction biotinylated peptide biotin-Ttds-YISPLKSPYKISEG (C-terminus in amide form) was used which can be purchased e.g. form the company JERINI peptide technologies (Berlin, Germany).
For the assay 50 nanoL of a 100 fold concentrated solution of the test compound in DMSO was pipetted into either a black low volume 384 well microtiter plate or a black 1536 well microtiter plate (both Greiner Bio-One, Frickenhausen, Germany), 2 microL of a solution of CDK9/CycT1 in aqueous assay buffer [50 millimol/L Tris/HCl pH 8.0, 10 millimol/L MgCl2, 1.0 millimol/L dithiothreitol, 0.1 millimol/L sodium ortho-vanadate, 0.01% (v/v) Nonidet-P40 (Sigma)] were added and the mixture was incubated for 15 min at 22° C. to allow pre-binding of the test compounds to the enzyme before the start of the kinase reaction. Then the kinase reaction was started by the addition of 3 microL of a solution of adenosine-tri-phosphate (ATP, 3.3 millimol/L=> final conc. in the 5 microL assay volume is 2 millimol/L) and substrate (1.25 micromol/L=> final conc. in the 5 microL assay volume is 0.75 micromol/L) in assay buffer and the resulting mixture was incubated for a reaction time of 25 min at 22° C. The concentration of CDK9/CycT1 was adjusted depending of the activity of the enzyme lot and was chosen appropriate to have the assay in the linear range, typical concentrations were in the range of 0.5 microg/ml. The reaction was stopped by the addition of 3 microL of a solution of TR-FRET detection reagents (0.33 micromol/L streptavidine-XL665 [Cisbio Bioassays, Codolet, France] and 1.67 nanomol/L anti-RB(pSer807/pSer8l 1)-antibody from BD Pharmingen [#558389] and 2 nanomol/L LANCE EU-W1024 labeled anti-mouse IgG antibody [Perkin-Elmer, product no. AD0077]) in an aqueous EDTA-solution (167 millimol/L EDTA, 0.2% (w/v) bovine serum albumin in 100 millimol/L HEPES pH 7.5).
The resulting mixture was incubated 1 h at 22° C. to allow the formation of complex between the phosphorylated biotinylated peptide and the detection reagents. Subsequently the amount of phosphorylated substrate was evaluated by measurement of the resonance energy transfer from the Eu-chelate to the streptavidine-XL. Therefore, the fluorescence emissions at 620 nm and 665 nm after excitation at 350 nm was measured in a TR-FRET reader, e.g. a Pherastar (BMG Labtechnologies, Offenburg, Germany) or a Viewlux (Perkin-Elmer). The ratio of the emissions at 665 nm and at […] was taken as the measure for the amount of phosphorylated substrate. The data were normalised (enzyme reaction without inhibitor=0% inhibition, all other assay components but no enzyme=100% inhibition).

The test system of assay [1] is MDA-MB-231 human breast cancer cells. The assay is described as follows: Proliferation assay MDA-MB-231 (crystal violet). It counts as cell-based. The note with it: 96 h, MDA-MB-231 cells, 4 days, read-out: Prolif-MDA MB231 IC50-[mol/l] (median). The procedure:
Human tumour cells were originally obtained from the American Type Culture Collection (ATCC), or from the Deutsche Sammlung von Mikroorganismen und Zellkulturen (DSMZ, German Collection of Microorganisms and Cell Cultures). Cultivated tumour cells (CAL-120, human breast adenocarcinoma cells, DSMZ ACC-459; MDA-MB-231, human breast cancer cells, ATCC HTB-26) were plated at a density of 4,000 cells/well in a 96-well multititer plate in 200 microL of their respective growth medium supplemented 10% fetal calf serum. After 24 hours, the cells of one plate (zero-point plate) were stained with crystal violet (see below), while the medium of the other plates was supplemented with the test substances in various concentrations (0 micromol/L, as well as in the range of 0.01-10 micromol/L; the final concentration of the solvent dimethyl sulfoxide was adjusted to 0.1%) using a Tecan HP D300 Digital Dispenser. The cells were incubated for 4 days in the presence of test substances. Cell proliferation was determined by staining the cells with crystal violet: the cells were fixed by adding 20 microL/measuring point of an 11% glutaric aldehyde solution for 15 minutes at room temperature. After three washing cycles of the fixed cells with water, the plates were dried at room temperature. The cells were stained by adding 100 microL/measuring point of a 0.1% crystal violet solution (pH 3.0). After three washing cycles of the stained cells with water, the plates were dried at room temperature. The dye was dissolved by adding 100 microL/measuring point of a 10% acetic acid solution. The extinction was determined by photometry at a wavelength of 595 nm. The change of cell number, in percent, was calculated by normalization of the measured values to the extinction values of the zero-point plate (=0%) and the extinction of the untreated (0 μM) cells (=100%). The IC50 values (inhibitory concentration at 50% of maximal effect) were determined by means of a 4 parameter fit.

T1 sequence (P50750 whole entry): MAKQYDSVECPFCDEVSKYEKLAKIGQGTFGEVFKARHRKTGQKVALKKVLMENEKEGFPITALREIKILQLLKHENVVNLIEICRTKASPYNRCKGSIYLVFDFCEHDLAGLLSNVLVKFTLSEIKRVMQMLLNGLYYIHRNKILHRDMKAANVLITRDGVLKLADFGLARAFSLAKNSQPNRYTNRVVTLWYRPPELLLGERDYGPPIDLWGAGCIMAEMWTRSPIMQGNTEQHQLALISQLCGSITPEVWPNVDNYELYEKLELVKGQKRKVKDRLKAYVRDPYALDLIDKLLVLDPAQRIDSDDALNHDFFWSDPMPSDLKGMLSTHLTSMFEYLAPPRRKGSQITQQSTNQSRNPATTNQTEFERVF
T1 sequence (O60563 whole entry partner): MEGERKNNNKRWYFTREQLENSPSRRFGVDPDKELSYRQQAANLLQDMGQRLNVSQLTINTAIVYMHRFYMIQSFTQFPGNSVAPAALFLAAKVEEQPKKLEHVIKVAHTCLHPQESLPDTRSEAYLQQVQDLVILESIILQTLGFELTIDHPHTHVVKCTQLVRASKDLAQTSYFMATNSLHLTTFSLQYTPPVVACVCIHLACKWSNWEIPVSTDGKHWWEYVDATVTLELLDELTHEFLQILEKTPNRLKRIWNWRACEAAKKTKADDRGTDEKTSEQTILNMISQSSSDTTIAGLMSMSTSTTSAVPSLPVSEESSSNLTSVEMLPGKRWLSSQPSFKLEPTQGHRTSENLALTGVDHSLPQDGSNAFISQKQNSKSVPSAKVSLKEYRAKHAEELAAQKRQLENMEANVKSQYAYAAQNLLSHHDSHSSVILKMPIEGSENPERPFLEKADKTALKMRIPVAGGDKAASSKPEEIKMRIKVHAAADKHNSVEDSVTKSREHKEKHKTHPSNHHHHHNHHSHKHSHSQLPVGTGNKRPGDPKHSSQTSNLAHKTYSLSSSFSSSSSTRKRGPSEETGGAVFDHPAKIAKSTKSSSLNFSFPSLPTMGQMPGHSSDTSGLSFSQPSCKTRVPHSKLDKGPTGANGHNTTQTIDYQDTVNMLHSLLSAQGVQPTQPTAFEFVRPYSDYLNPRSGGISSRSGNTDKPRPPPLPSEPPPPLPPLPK

For the molecule `Fc1ccc2[nH]c(CNc3nc(N4CCOCC4)nn4c(Br)cnc34)nc2c1` [Example 20, 7-bromo-N-[(5-fluoro-1H-benzimidazol-2-yl)methyl]-2-(morpholin-4-yl)imidazo[2,1-f][1,2,4]triazin-4-amine], the IC50 on CDK9/CycT1 is over 20000 nM; in assay [1] it was 3.73 nM.

For the molecule `CN1CCN(c2nc(NCc3nc4cc(F)ccc4[nH]3)c3ncc(Br)n3n2)CC1` [Example 21, 7-bromo-N-[(5-fluoro-1H-benzimidazol-2-yl)methyl]-2-(4-methylpiperazin-1-yl)imidazo[2,1-f][1,2,4]triazin-4-amine], the IC50 was over 20000 nM on CDK9/CycT1 and 19.7 nM in assay [1].

Consider `Fc1cccc2[nH]c(CNc3nc(N4CCNCC4)nn4c(Br)cnc34)nc12` [Example 22, 7-bromo-N-[(4-fluoro-1H-benzimidazol-2-yl)methyl]-2-(piperazin-1-yl)imidazo[2,1-f][1,2,4]triazin-4-amine], for which the IC50 at CDK9/CycT1 was over 19700 nM; in assay [1] it was 4.41 nM.

In the case of `CN1CCN(c2nc(NCc3nc4c(F)cccc4[nH]3)c3ncc(Br)n3n2)CC1` [Example 23, 7-bromo-N-[(4-fluoro-1H-benzimidazol-2-yl)methyl]-2-(4-methylpiperazin-1-yl)imidazo[2,1-f][1,2,4]triazin-4-amine], the values for the IC50 (on CDK9/CycT1; in assay [1]) were over 20000 nM and 34.3 nM, respectively.

Take `C[C@@H]1CN(c2nc(NCc3nc4ccccc4[nH]3)c3ncc(C(F)(F)F)n3n2)C[C@H](C)N1.O=CO` [Example 24, N-[(1H-benzimidazol-2-yl)methyl]-2-[rel-(3R,5S)-3,5-dimethylpiperazin-1-yl]-7-(trifluoromethyl)imidazo[2,1-f][1,2,4]triazin-4-amine Formate (1/1)]: the IC50 on CDK9/CycT1 is over 20000 nM; in assay [1], 1.52 nM.

With `CN1CCN(c2nc(NCc3nc4ccccc4[nH]3)c3ncc(C(F)(F)F)n3n2)CC1` [Example 25, N-[(1H-benzimidazol-2-yl)methyl]-2-(4-methylpiperazin-1-yl)-7-(trifluoromethyl)imidazo[2,1-f][1,2,4]triazin-4-amine], the IC50 at CDK9/CycT1 was over 20000 nM; in assay [1], 13.2 nM.

`FC(F)(F)c1cnc2c(NCc3nc4ccccc4[nH]3)nc(N3CCOCC3)nn12` [Example 26, N-[(1H-benzimidazol-2-yl)methyl]-2-(morpholin-4-yl)-7-(trifluoromethyl)imidazo[2,1-f][1,2,4]triazin-4-amine]: the IC50 is over 20000 nM at CDK9/CycT1 and 7.21 nM in assay [1].

For the molecule `Fc1ccc2[nH]c(CNc3nc(N4CCOCC4)nn4c(C(F)(F)F)cnc34)nc2c1F` [Example 27, N-[(4,5-difluoro-1H-benzimidazol-2-yl)methyl]-2-(morpholin-4-yl)-7-(trifluoromethyl)imidazo[2,1-f][1,2,4]triazin-4-amine], the IC50 at CDK9/CycT1 came out at 6740 nM; in assay [1] it was 1.91 nM.

Take `CN1CCN(c2nc(NCc3nc4c(F)c(F)ccc4[nH]3)c3ncc(C(F)(F)F)n3n2)CC1` [Example 28, N-[(4,5-difluoro-1H-benzimidazol-2-yl)methyl]-2-(4-methylpiperazin-1-yl)-7-(trifluoromethyl)imidazo[2,1-f][1,2,4]triazin-4-amine]: the IC50 at CDK9/CycT1 is over 20000 nM; in assay [1], 2.83 nM.

Regarding `C[C@@H]1CN(c2nc(NCc3nc4c(F)c(F)ccc4[nH]3)c3ncc(C(F)(F)F)n3n2)C[C@H](C)N1` [Example 29, N-[(4,5-difluoro-1H-benzimidazol-2-yl)methyl]-2-[rel-(3R,5S)-3,5-dimethylpiperazin-1-yl]-7-(trifluoromethyl)imidazo[2,1-f][1,2,4]triazin-4-amine], the figures for the IC50 (on CDK9/CycT1; in assay [1]) were 4620 nM and 0.839 nM, respectively.

Regarding `CN(CC(C)(C)O)c1nc(NCc2nc3ccccc3[nH]2)c2ncc(C(F)(F)F)n2n1` [Example 30, 1-[{4-[(1H-benzimidazol-2-ylmethyl)amino]-7-(trifluoromethyl)imidazo[2,1-f][1,2,4]triazin-2-yl}(methyl)amino]-2-methylpropan-2-ol], the IC50 at CDK9/CycT1 was found to be 10800 nM; in assay [1], 17.3 nM.
